What was measured:
D. radicum = assay: Fibers+optical brightener/cabbage maggot field-cage experiment; format: in vivo, Delia radicum; conditions: rate 0.033 kg ai/100-m row
Text: Fibers+optical brightener/cabbage maggot field-cage experiment. Optical (fluorescent) brighteners are widely used in paints, fabrics, plastics and detergents, wherein they enhance the apparent brightness of the material by absorbing UV radiation and emitting light in the blue visual spectrum (Martinez et al. 2000). These brighteners were feasible to use with our existing technology and could potentially increase fiber effectiveness. Thus in mid-May 2000, we tested the efficacy of optical brighteners added to EVA fibers against cabbage maggots in four large (3.7×3.7×1.8-m) Lumite® field cages. The experiment was a randomized complete block design with four replicates (cages).
Within each cage, six rows (3-m long) were formed about 0.3-m apart by hand plowing. Greenhouse-grown two-leaf stage broccoli cv ‘Southern Comet’ was transplanted into the 6 rows within each cage at a plant spacing of 15 cm. One row of broccoli represented a single treatment within each cage. […]
On May 21 , approximately 175 D. radicum pupae were released into each of the four cages and 10% sucrose solution was provided as a food source for emerging adults. […] Total number of larvae and pupae per plant was recorded.

Silverleaf Whiteflies = assay: Greenhouse no choice oviposition of whiteflies on squash; format: in vivo, Bemisia argentifolii; conditions: spun sucrose trial
Experimental: Whiteflies were tested with a “No Choice” protocol using single treated and untreated summer squash plants var. “Seneca.” Two liter, polyethylene soda container arenas holding a single squash plant in a potting soil mixture were used for whitefly studies. Ten mating pairs of whiteflies were introduced into each arena for all studies. Up to forty arenas, depending on the treatment parameters of a given trial, were run simultaneously under identical ambient conditions. Ambient temperature and time of day were tracked during greenhouse trials. […] Counts were made using a binocular dissecting scope. […] While EVA, graphite and PVA fibers were relatively stable in greenhouse studies, the sucrose fibers were quickly degraded by moisture and formed a sugar coating of the leafs surface with numerous raised and stable sugar droplets. This was an expected result and the efficacy of this fiber application was worthy of testing.

Compound | D. radicum larvae per 3-m row of broccoli (D. radicum) | Total # of eggs (total mean number of eggs/plant) (Silverleaf Whiteflies) | Total # of eggs (total mean number of eggs/plant) (Silverleaf Whiteflies; listed as sucrose)
CCOP(=S)(OCC)Oc1nc(Cl)c(Cl)cc1Cl [Chlorpyrifos drench, chlorpyrifos] | 6.0 ± 2.3 |  | 
OC[C@H]1O[C@@](CO)(O[C@H]2O[C@H](CO)[C@@H](O)[C@H](O)[C@H]2O)[C@@H](O)[C@@H]1O [Sugar, sucrose] |  | 5.867 | 5.87±1.96

— patent US20030198659A1, “Fibrous pest control” (priority 2001, published 2003)
